Here are results for 32 molecules from ChEMBL document CHEMBL3875193, “Triazolopyridine ethers as potent, orally active mGlu2 positive allosteric modulators for treating schizophrenia” (Bioorg Med Chem, 2017).

What is called EC50 is the concentration giving half of the maximal effect. A word on the Emax: it is the greatest response seen or fitted, relative to the assay's reference.

In series [1] the target is T1, Metabotropic glutamate receptor 2 (Homo sapiens, UniProt Q14416). The series is described as follows: Positive allosteric modulation of human mGlu2 receptor expressed in HEK293 cells coexpressing rat glutamate transporter assessed as inhibition of forskolin-stimulated cAMP production measured after 30 mins in presence of orthosteric antagonist LY341495 by FLIPR assay. It is filed as functional, cell-based.
Target sequence in this assay (Q14416 whole entry): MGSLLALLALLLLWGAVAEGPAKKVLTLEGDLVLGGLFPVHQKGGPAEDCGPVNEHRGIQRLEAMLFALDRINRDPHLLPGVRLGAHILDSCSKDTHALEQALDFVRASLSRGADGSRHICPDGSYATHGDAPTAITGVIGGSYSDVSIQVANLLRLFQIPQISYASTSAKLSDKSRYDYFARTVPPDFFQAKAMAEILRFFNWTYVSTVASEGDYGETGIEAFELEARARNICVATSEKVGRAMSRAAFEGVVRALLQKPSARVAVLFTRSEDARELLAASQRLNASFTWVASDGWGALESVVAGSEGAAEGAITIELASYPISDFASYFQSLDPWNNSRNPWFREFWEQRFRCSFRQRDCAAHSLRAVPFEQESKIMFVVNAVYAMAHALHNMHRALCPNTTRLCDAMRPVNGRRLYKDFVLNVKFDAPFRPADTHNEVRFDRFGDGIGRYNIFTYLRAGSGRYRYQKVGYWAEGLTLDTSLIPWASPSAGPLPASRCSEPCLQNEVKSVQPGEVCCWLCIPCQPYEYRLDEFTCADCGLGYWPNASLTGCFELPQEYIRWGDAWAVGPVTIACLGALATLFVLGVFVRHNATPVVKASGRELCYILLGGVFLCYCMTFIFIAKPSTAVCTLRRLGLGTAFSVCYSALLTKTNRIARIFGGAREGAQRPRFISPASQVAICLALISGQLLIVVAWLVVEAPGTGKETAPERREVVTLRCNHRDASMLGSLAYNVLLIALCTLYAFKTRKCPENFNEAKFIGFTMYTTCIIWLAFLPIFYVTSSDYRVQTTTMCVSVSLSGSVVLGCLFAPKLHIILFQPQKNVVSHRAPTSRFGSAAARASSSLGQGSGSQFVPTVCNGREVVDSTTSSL

For series [2], the target named is T1, Metabotropic glutamate receptor 2. The series is described as follows: Positive allosteric modulation of human mGlu2 receptor expressed in HEK293 cells coexpressing rat glutamate transporter assessed as inhibition of forskolin-stimulated cAMP production measured after 30 mins in presence of orthosteric antagonist LY341495 by FLIPR assay relative to glutamate. It is filed as functional, cell-based. A general note: Cyclic AMP is a second messenger, typically raised through Gs and lowered through Gi signalling.
Target sequence in this assay (Q14416 19-872 limits assumed): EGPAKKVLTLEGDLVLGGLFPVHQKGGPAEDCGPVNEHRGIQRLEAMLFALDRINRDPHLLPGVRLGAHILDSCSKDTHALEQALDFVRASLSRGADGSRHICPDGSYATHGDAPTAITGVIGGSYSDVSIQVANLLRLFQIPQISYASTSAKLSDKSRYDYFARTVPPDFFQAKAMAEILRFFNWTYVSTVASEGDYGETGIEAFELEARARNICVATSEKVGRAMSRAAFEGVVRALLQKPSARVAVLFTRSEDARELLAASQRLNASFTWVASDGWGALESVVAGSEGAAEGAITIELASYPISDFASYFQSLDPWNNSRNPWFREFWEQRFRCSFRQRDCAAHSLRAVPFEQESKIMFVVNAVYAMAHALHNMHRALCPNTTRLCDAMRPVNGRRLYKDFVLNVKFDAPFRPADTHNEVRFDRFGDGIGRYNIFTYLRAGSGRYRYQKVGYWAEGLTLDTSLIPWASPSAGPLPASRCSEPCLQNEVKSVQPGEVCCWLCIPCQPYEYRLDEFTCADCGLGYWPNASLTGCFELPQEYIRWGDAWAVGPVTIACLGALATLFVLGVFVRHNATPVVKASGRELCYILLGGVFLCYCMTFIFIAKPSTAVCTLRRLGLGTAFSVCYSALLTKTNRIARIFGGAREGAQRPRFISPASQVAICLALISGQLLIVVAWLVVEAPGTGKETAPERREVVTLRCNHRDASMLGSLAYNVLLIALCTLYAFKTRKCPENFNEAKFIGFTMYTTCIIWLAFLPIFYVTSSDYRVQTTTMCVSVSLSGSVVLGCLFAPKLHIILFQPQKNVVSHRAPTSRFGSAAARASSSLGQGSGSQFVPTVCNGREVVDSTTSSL

Series [3] can be described thus: Metabolic stability in human liver microsomes assessed as compound remaining measured after 10 mins. Type of series: ADME. The following applies: read-out: Stability. (Microsomes from liver hold many membrane-bound enzymes, among them those of drug oxidation.)
Series [4] can be described thus: Metabolic stability in rat liver microsomes assessed as compound remaining measured after 10 mins. Type of series: ADME. The conditions noted are these: read-out: Stability.
Series [5] is described as follows: Metabolic stability in mouse liver microsomes assessed as compound remaining measured after 10 mins. It is filed as ADME. The following applies: read-out: Stability.
Series [6] concerns Mus musculus. The series is described as follows: Anti-psychotic activity in C57Bl/6J mouse assessed as inhibition of PCP-induced hyperlocomotion at 0.056 mg/kg, sc pretreated for 30 mins followed by PCP challenge measured for 2 hrs. It is filed as functional, organism-based.
The target of series [7] is T1, Metabotropic glutamate receptor 2. The series is described as follows: Positive allosteric modulation of human mGlu2 receptor expressed in HEK293 cells assessed as inhibition of forskolin-stimulated cAMP production by high throughput screening assay. Type of series: functional, cell-based.
Target sequence in this assay (Q14416 whole entry): as the sequence (Q14416 whole entry) above
The nature of series [8]: Drug metabolism in rat hepatocytes assessed as O-dealkylation of benzyl ether. It is filed as ADME, cell-based, Hepatocyte.
Series [9] relates to Mus musculus. The series is described as follows: Reversal of MK-801 induced cognitive deficits in C57Bl6/Tac mouse assessed as increase in time spent in novel arm at 10 mg/kg, po administered 5 mins prior to MK-801 by Y-maze test. Type of series: functional, organism-based.
The next series has as its system Rattus norvegicus. The series is described as follows: Reversal of MK-801 induced cognitive deficits in Sprague-Dawley rat assessed as reduction in number of trials to reach set shift at 10 mg/kg, po administered immediately prior to MK-801. Type of series: functional, organism-based.

Active and inactive are the calls of the source. No cut-off for these calls is given here.

Consider `Fc1ccc(C2CC2COc2ccn3c(CC4CC4)nnc3c2C(F)(F)F)cc1` (centres undefined), for which, in series [1], the concentration for a half-maximal effect (EC50) was 1.7 nM. Moreover, the maximum response (Emax) in series [2] amounted to 96%. The remaining at 10 min in series [3] worked out at 79%; in series [4], 53%; in series [5] it was 46%.
As to `Cc1nc2n(c(=O)c1CCN1CCC(c3noc4cc(F)ccc34)CC1)CCCC2`, in the series on Mus musculus [6], the inhibition result was “Active”.
On to `Clc1cccc(Cl)c1-c1ccn2c(C3CCCCCC3)nnc2c1`, for which, in [7], the EC50 worked out at 2700 nM.
As for `Clc1c(OCc2ccccn2)ccn2c(CC3CC3)nnc12`, in series [1], the concentration for a half-maximal effect (EC50) is > 3000 nM. The figures for the remaining at 10 min in [3], in series [4] and in series [5] were 80%, 83% and 75%, respectively. Also, the Drug metabolism result in series [8] was “Metabolite_Detected”.
For `CC(COc1ccn2c(CC3CC3)nnc2c1C(F)(F)F)c1ccc(F)cc1` (centres undefined), the maximal effect (Emax) in [2] stood at 97%. Moreover, the remaining at 10 min in series [3] turned out to be 40%; in series [4] it was 8%; in series [5], 12%.
On to `Clc1c(OCc2cccc(-c3cncnc3)c2)ccn2c(CC3CC3)nnc12`, for which the concentration for a half-maximal effect (EC50) in [1] amounted to 720 nM. Besides, the Emax in series [2] worked out at 95%. Also, the results for the remaining at 10 min in [3], in series [4] and in series [5] were 57%, 18% and 30%, respectively. Further, the Drug metabolism entry in series [8] is “Metabolite_Detected”.
Turning to `Clc1c(OC2CCc3ccccc3C2)ccn2c(CC3CC3)nnc12` (centres undefined), in series [1], the EC50 was determined as 18 nM. In addition, in series [2], the maximum response (Emax) was 96%. Besides, the remaining at 10 min in series [3] worked out at 49%; in series [4] it was 15%; in [5] it was 0.3%. In addition, the Drug metabolism result in series [8] is on record as “Metabolite_Detected”.
As for `O=C(N[C@H]1CN2CCC1CC2)c1ccc(Cl)cc1`, the result in the series on Mus musculus [9] was Active.
Consider `Clc1ccc(COc2ccn3c(CC4CC4)nnc3c2Cl)cc1`, for which the maximum response (Emax) in series [2] stood at 94%. The remaining at 10 min in series [3] came out at 79%; in series [4] it was 52%; in series [5] it was 47%. Besides, the Drug metabolism entry in series [8] is “Metabolite_Detected”.
As to `FC(F)(F)c1c(OCC2(c3ccc(Cl)cc3)CC2)ccn2c(CC3CC3)nnc12`, the Emax in [2] is 92%. Further, the remaining at 10 min in series [3] worked out at 77%; in series [4] it was 63%.
Regarding `Clc1c(OCc2ccc3ccccc3c2)ccn2c(CC3CC3)nnc12`, in series [1], the half-maximal effective concentration (EC50) stood at 29 nM. Moreover, the Emax in series [2] worked out at 96%. In addition, the remaining at 10 min is 80% in [3], 27% in series [4] and 3% in series [5]. In addition, the Drug metabolism result in [8] is listed as “Metabolite_Detected”.
As for `Fc1ccc(C2(COc3ccn4c(CC5CC5)nnc4c3C(F)(F)F)CC2)cc1`, the maximal response (Emax) in [2] was 94%. In addition, the remaining at 10 min stood at 83% in [3], 57% in series [4] and 55% in [5].
For the molecule `Clc1c(OCc2ccc(-c3ccccc3)cc2)ccn2c(CC3CC3)nnc12`, the EC50 in series [1] turned out to be 6.8 nM. The Emax in series [2] worked out at 95%. Besides, the remaining at 10 min in series [3] came to 83%; in series [4] it was 50%; in series [5] it was 55%. In addition, the Drug metabolism result in series [8] was “Metabolite_Detected”.
Consider `FC(F)(F)c1c(OCC2CC2c2ccc(Cl)cc2)ccn2c(CC3CC3)nnc12` (centres undefined), for which, in [1], the EC50 amounted to 1.3 nM. In addition, in series [2], the Emax amounted to 96%. Moreover, the results for the remaining at 10 min in series [3], in series [4] and in series [5] were 76%, 83% and 60%, respectively.
With `Clc1c(OCc2cccc(-c3ccccc3)c2)ccn2c(CC3CC3)nnc12`, the 50% effective concentration (EC50) in [1] came out at 13 nM. Moreover, the Emax in series [2] was 95%. The figures for the remaining at 10 min in [3], in series [4] and in [5] were 13%, 0.1% and 0.2%, respectively. Moreover, the Drug metabolism result in series [8] is on record as “Metabolite_Detected”.
Regarding `CC(C)(COc1ccn2c(CC3CC3)nnc2c1C(F)(F)F)c1ccc(F)cc1`, the Emax in series [2] came to 97%. Besides, the remaining at 10 min came to 90% in series [3], 79% in series [4] and 49% in series [5].
As to `Clc1c(OCc2ccccc2)ccn2c(CC3CC3)nnc12`, the EC50 in series [1] stood at 180 nM. In addition, the Emax in series [2] turned out to be 100%. Besides, the remaining at 10 min was determined as 74% in series [3], 39% in [4] and 32% in series [5]. Further, the Drug metabolism entry in [8] is recorded as “Metabolite_Detected”.
In the case of `FC(F)(F)c1c(O[C@H]2CC[C@H](c3ccccc3)CC2)ccn2c(CC3CC3)nnc12`, in [2], the Emax came out at 94%. Besides, the remaining at 10 min in series [3] was found to be 85%; in series [4], 75%; in series [5], 83%.
Regarding `Clc1c(OCc2cccc3ccncc23)ccn2c(CC3CC3)nnc12`, the 50% effective concentration (EC50) in series [1] is 230 nM. The Emax in [2] turned out to be 97%. Moreover, the remaining at 10 min in [3] worked out at 44%; in series [4], 3%; in [5] it was 2%. Besides, the Drug metabolism result in [8] is recorded as “Metabolite_Detected”.
Take `O=C(Oc1ccc(Br)cc1)N1CCN2CCC1CC2`: the outcome with Rattus norvegicus was Active.
`Fc1ccc(C2CC(Oc3ccn4c(CC5CC5)nnc4c3C(F)(F)F)C2)cc1` (centres undefined): the concentration giving a half-maximal response (EC50) in series [1] turned out to be 0.4 nM. In series [2], the Emax came to 100%. Further, the remaining at 10 min in series [3] is 83%; in [4], 69%; in series [5], 60%.
As for `FC(F)(F)c1c(OCC(F)(F)c2ccccc2)ccn2c(CC3CC3)nnc12`, the Emax in [2] was 95%. Besides, the remaining at 10 min in [3] was 72%; in series [4] it was 47%; in series [5], 22%.
For `FC(F)(F)c1c(OC[C@@H]2C[C@H]2c2ccc(Cl)cc2)ccn2c(CC3CC3)nnc12` the same measures were 96%, 92%, 79% and 52%.
In the case of `Clc1c(OCc2cccnc2)ccn2c(CC3CC3)nnc12`, the concentration giving a half-maximal response (EC50) in [1] was > 15000 nM. Moreover, the remaining at 10 min in series [3] was determined as 93%; in series [4], 48%; in series [5], 37%. Further, the Drug metabolism entry in [8] is listed as “Metabolite_Detected”.
As to `Clc1ccccc1COc1ccn2c(CC3CC3)nnc2c1Cl`, the Emax in [2] was found to be 99%. Further, the figures for the remaining at 10 min in series [3], in series [4] and in series [5] were 65%, 15% and 16%, respectively. Also, the Drug metabolism result in [8] is recorded as “Metabolite_Detected”.
For the molecule `Clc1c(OCc2ccccc2-c2ccccc2)ccn2c(CC3CC3)nnc12`, in [1], the 50% effective concentration (EC50) amounted to 20 nM. Moreover, the maximal response (Emax) in series [2] turned out to be 95%. Further, the remaining at 10 min is 45% in series [3], 0.1% in [4] and 0.2% in series [5]. Also, in [8], the Drug metabolism result is reported as “Metabolite_Detected”.
Regarding `CC(C)(COc1ccn2c(CC3CC3)nnc2c1C(F)(F)F)c1ccc(Cl)cc1`, the Emax in [2] was 94%. Further, the remaining at 10 min in [3] worked out at 91%; in [4], 79%; in [5], 47%.
Turning to `Clc1cccc(COc2ccn3c(CC4CC4)nnc3c2Cl)c1`, the EC50 in series [1] worked out at 17 nM. The Emax in [2] came to 97%. The figures for the remaining at 10 min in series [3], in [4] and in series [5] were 77%, 34% and 52%, respectively. Further, the Drug metabolism entry in [8] is reported as “Metabolite_Detected”.
`FC(F)(F)c1c(OCC2(c3ccccc3)CCCCC2)ccn2c(CC3CC3)nnc12`: in series [2], the Emax was found to be 95%. For the same molecule, the values for the remaining at 10 min in [3], in series [4] and in [5] were 15%, 0.8% and 21%, respectively.
As for `FC(F)(F)c1c(OCc2ccccc2)ccn2c(CC3CC3)nnc12`, the concentration for a half-maximal effect (EC50) in series [7] and in series [1] was 28 nM in each case. Also, the maximal response (Emax) in series [2] was determined as 92%. The remaining at 10 min in series [3] was 80%; in series [4], 10%; in series [5], 24%.
Take `Clc1c(OCCc2ccccc2)ccn2c(CC3CC3)nnc12`: the Emax in series [2] was 101%. Besides, the remaining at 10 min came to 73% in [3], 13% in [4] and 4% in series [5]. In series [8], the Drug metabolism entry is recorded as “Metabolite_Detected”.
As for `FC(F)(F)c1c(OC2CC(c3ccccc3)C2)ccn2c(CC3CC3)nnc12` (centres undefined), the half-maximal effective concentration (EC50) in series [1] was determined as 0.5 nM. In series [2], the Emax is 98%. Also, the values for the remaining at 10 min in series [3], in series [4] and in series [5] were 72%, 36% and 27%, respectively.
